The values that follow are results of earlier work, collected in patent US20130171237A1, “ARIPIPRAZOLE COMPOSITIONS AND METHODS FOR ITS TRANSDERMAL DELIVERY” (priority 2010, published 2013).

Each structure is given as a SMILES string.

Consider `O=C1CCc2ccc(OCCCCN3CCN(c4cccc(Cl)c4Cl)CC3)cc2N1` [ARPZ, Aripiprazole], for which the solubility in water result is recorded as “practically insoluble in water”.
